Consider three compounds from patent publication US8461152B2, “Arylcyclohexylethers of dihydrotetraazabenzoazulenes” (Hoffmann-La Roche Inc., priority 2008, dated 2013).

Structures can show the parent of a compound that is named as a salt.

T1 sequence (P37288 whole entry): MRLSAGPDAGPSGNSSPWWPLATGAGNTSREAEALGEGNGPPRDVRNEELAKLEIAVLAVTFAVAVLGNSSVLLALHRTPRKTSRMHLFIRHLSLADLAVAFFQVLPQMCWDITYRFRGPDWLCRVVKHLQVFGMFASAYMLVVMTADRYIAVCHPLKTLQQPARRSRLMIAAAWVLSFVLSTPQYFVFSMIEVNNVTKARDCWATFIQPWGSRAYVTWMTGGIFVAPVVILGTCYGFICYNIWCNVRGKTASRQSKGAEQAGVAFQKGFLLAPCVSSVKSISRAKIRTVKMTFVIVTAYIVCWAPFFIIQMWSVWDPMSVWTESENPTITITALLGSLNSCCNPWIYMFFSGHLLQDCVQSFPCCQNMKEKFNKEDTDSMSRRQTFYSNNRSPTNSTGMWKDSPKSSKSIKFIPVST

This experiment concerns the target T1, human V1a receptor (Homo sapiens, UniProt P37288).
T1 construct: expressed in transfected cells; host or cells: HEK293 cells, transiently transfected; membrane preparation
Briefly: human V1a receptor binding studies (SPA, 3H-Vasopressin, membranes of transfected HEK293 cells). The conditions noted are these: displacement of 3H-Vasopressin, HEK293 cell membranes, 1 h at room temperature; Ki by Cheng-Prussoff equation; read-out: pKi (hV1a) (converted). For orientation: Loss of bound radioactivity is the signal in a displacement assay; it reports binding, not function.
As for `COc1cccc(O[C@H]2CC[C@H](c3nnc4n3-c3ccc(Cl)cc3CNC4)CC2)c1` [Example 30, trans-8-Chloro-1-[4-(3-methoxy-phenoxy)-cyclohexyl]-5,6-dihydro-4H-2,3,5,10b-tetraaza-benzo[e]azulene hydrochloride], the Ki was 3.31 nM. Take `CN1Cc2cc(Cl)ccc2-n2c(nnc2[C@H]2CC[C@H](Oc3ccc(Cl)cn3)CC2)C1` [Example 75, trans-8-Chloro-1-[4-(5-chloro-pyridin-2-yloxy)-cyclohexyl]-5-methyl-5,6-dihydro-4H-2,3,5,10b-tetraaza-benzo[e]azulene]: the Ki is 2.82 nM. As for `CN1Cc2cc(Cl)ccc2-n2c(nnc2[C@H]2CC[C@@H](Oc3ccccc3)CC2)C1` [Example 16, cis-8-Chloro-5-methyl-1-(4-phenoxy-cyclohexyl)-5,6-dihydro-4H-2,3,5,10b-tetraaza-benzoazulene], the figure is 2.88 nM.
